Assay results reported in patent publication US20260071187A1, “MOLECULARLY CLEAVABLE BIOINK FORMULATION” (THE BRIGHAM AND WOMEN'S HOSPITAL, INC., priority 2022, published 2026).

Tests used:
AMPA receptor = assay: MEA recording with pharmacological intervention (NBQX); format: cell-based, human; settings: NBQX 10 μM, Hase-1000 samples at week 4, vs DMSO
Procedure: (§1) MEA recording of 3D-bioprinted mini-brains was performed from week 1 to week 4 after differentiation (day 10 to day 31 after digestion). The samples containing SNaPs were plated on Geltrex-coated 12-well MEA plates (Axion Biosystems, USA) in the differentiation medium. The samples were fed 2-3 times a week with partial medium change. Neuronal activities were measured every week using the Maestro 12-well MEA plate system (Axion Biosystems) for 5 min. After 4 weeks of culture in MEA plate, synaptic contents were tested using pharmacological inhibitors of neurotransmitter receptors. Specifically, neuronal activity was measured for 5 min by adding DMSO control before adding 10 μM of NBQX (Abcam) or 10 μM of D-APV (Abcam). The samples were incubated for 5-10 min, and neuronal activities were assessed again for 5 min. All the MEA data were analyzed using the Axion Integrated Studio 2.4.2 and the Neural Metric Tool (Axion Biosystems).

NMDA receptor = assay: MEA recording with pharmacological intervention (D-APV); format: cell-based, human; settings: D-APV 50 μM (FIG. 8g legend), Hase-1000 samples at week 4, vs DMSO
Procedure: as §1, with “Specifically, neuronal activity was measured for 5 min by adding DMSO control before adding 10 μM of NBQX (Abcam) or 10 μM of D-APV (Abcam).” left out

| burst frequency (AMPA receptor) | mean firing rate (AMPA receptor) | burst frequency (NMDA receptor) | firing (NMDA receptor) | SMILES |
| --- | --- | --- | --- | --- |
| significantly reduced | significantly reduced |  |  | NS(=O)(=O)c1cccc2c1c([N+](=O)[O-])cc1nc(O)c(O)nc12 [NBQX, 2,3-dihydroxy-6-nitro-7-sulfamoyl-benzo(F)quinoxaline] |
|  |  | significantly reduced | significantly reduced | N[C@H](CCCP(=O)(O)O)C(=O)O [D-APV, D-2-amino-5-phosphonovaleric acid] |
